Measured values as given in patent US7977387B2, “Aminobenzophenone compounds” (Leo Pharma A/S, priority 2003, dated 2011).

Key:
[1] = system: IL-1β; experiment: Inhibition of IL-1β secretion in LPS stimulated peripheral blood mononuclear cells; format: cell-based; conditions: PBMC; LPS stimulated human peripheral blood mononuclear cells, 18 hours, ELISA; read-out: The median inhibition concentration (IC50, nM) of IL-1β
Procedure, shortened: (§1)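 Human PBMCs (5×10^5 cells/ml, RPMI 1640 + 2% FCS) pre-treated with compound 30 min, then stimulated with LPS ([…]) for 18 h. Secreted IL-1β and TNF-α quantified by ELISA; IC50 values calculated.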

[2] = system: TNF-α; experiment: Inhibition of TNF-α secretion in LPS stimulated peripheral blood mononuclear cells; format: cell-based; conditions: PBMC; LPS stimulated human peripheral blood mononuclear cells, 18 hours, ELISA; read-out: The median inhibition concentration (IC50, nM) of TNF-α
Procedure, shortened: as §1

[3] = target: T1, p38α MAP kinase (Homo sapiens, UniProt Q16539); experiment: p38α MAP kinase assay (immunoprecipitated FLAG-p38α, GST-ATF-2 substrate); format: biochemical; conditions: FLAG-p38α from COS-1 cells, 50 μM ATP; read-out: p38 MAP kinase IC50
T1 construct: made in house; host or cells: COS-1 cells (transient co-transfection; anti-FLAG M2 immunoprecipitation)
Description: COS-1 cells (derived from African green monkey kidney fibroblast-like cell containing wild-type T antigen under control of the SV40 promotor) were obtained from ATCC (ATCC no. CRL-1650) and grown in growth medium (DMEM without phenoired, 10% FCS, 2 mM L-glutamine, 100 U penicillin and 100 μg streptomycin/ml) at 37° C. with 5% CO2. The cells were passaged twice a week by trypsination (0.25% trypsin, 1 mM EDTA in PBS) and were split 1:10. The medium was changed every second or third day. The cell line was regularly tested with the Mycoplasma PCR Primer Set (Stratagene) and found to be free of Mycoplasma. Tissue culture media, FCS, L-glutamine and penicillin and streptomycin are from Bribco BRL, Gaithersburg, Md., USA.
Transient Expression of COS-1 Cells
On day one COS-1 cells were seeded in 143 cm^2 petri dish with a density of 2×10^4 celler/cm^2 in growth medium. At day 2 the cells were co-transfected with 5 μg (total) of experimental plasmid DNA, expressing the FLAG-p38α and FLAG-MKK6(EE). The plasmids were introduced into the COS-1 cells in serum-free medium using DOTAP™ (Boehringer-Mannheim, Mannheim, Germany). Plasmid DNA was prepared and purified using the QIAGEN EndoToxin-free Maxiprep-500 kit (Hilden, Germany). Briefly, DNA and DOTAP™ were mixed for exactly 15 min. at 37° C. In the CO2 incubator. […]

[4] = system: LPS induced TNF-α response; experiment: In vivo screening model of LPS induced TNF-α response in mice; conditions: Mus musculus, mice (C3H/HeN), dosed 1 hour prior to LPS, plasma TNF-α 80-90 minutes after LPS, vs LPS treated control group, read-out: In vivo inhibition of LPS induced TNF-α production (in %)
Description: In Vivo Screening Model of LPS Induced TNF-α Response in Mice
To study the effect of compounds of the present invention in vivo, an in vivo screening model of LPS induced TNF-α response in mice was set up as follows: Groups of 6 mice (C3H/HeN, female, about 8 weeks (20 g), Bomholtgaard) were dosed with test compounds in suspension vehicle 1 hour prior to LPS administration (LPS from E. coli 055:B5, L-4005, Sigma). At time 0, the mice were dosed ip with 1.0 mg LPS/kg. After anesthetization with Hypnorm/Dormicum, the mice were bled from the periorbital venous plexus 80-90 minutes after LPS administration. The blood samples were sampled in EDTA stabilised tubes and centrifuged at 4000 rpm for 10 minutes at 4° C. The plasma level of TNF-α was analysed by ELISA. Compound 156 of WO 98/32730 was used as reference compound. The plasma level of TNF-α was determined using a sandwich ELISA. Microtiter plates were coated with a monoclonal antibody against mouse TNF-α, washed and blocked with a casein buffer. Samples of mouse TNF-α recombinant standards were added to the wells of the microtiter plates and incubated. All standards were tested in triplicate, all plasma samples in single. After sample and standard incubation, the plates were washed and incubated with biotinylated polyclonal secondary antibody against mouse TNF-α and washed. Enzyme conjugate was added to all wells and incubated. Substrate was added and the enzyme/substrate reaction stopped after 15 minutes at room temperature with 1M H2SO4. The colour development (OD) was measured at 450 nm on an ELISA reader and the background OD at 620 nm was subtracted. […] The results of the tested compounds are indicated as a percentage inhibition compared to an LPS treated control group. Compounds were tested at 10 mg/kg. The Mann-Whitney test was used to compare drug treated groups to the LPS treated control group (p<0.05).

T1 sequence (Q16539 whole entry): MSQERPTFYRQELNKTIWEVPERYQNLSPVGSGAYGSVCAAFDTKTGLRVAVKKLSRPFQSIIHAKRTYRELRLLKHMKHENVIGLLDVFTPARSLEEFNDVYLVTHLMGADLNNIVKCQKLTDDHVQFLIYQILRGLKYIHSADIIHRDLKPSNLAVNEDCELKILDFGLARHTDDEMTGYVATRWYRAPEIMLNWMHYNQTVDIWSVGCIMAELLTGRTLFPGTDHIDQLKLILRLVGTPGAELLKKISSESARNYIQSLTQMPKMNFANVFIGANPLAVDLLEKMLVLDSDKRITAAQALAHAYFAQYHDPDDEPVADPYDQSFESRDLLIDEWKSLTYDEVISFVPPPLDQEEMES

IC50 [1]: 4 nM
IC50 [2]: 0.6 nM
IC50 [3]: 2 nM
SMILES: Cc1ccc(C(=O)NCCO)cc1C(=O)c1ccc(Nc2ccccc2N)cc1Cl [Compound 112, 3-[4-(2-Aminophenylamino)-2-chlorobenzoyl]-N-(2-hydroxyethyl)-4-methylbenzamide]
inhibition at 10 mg/kg [4]: 96%
